Results as given in ChEMBL document CHEMBL4020847, “Discovery of an Orally Bioavailable Inhibitor of Defective in Cullin Neddylation 1 (DCN1)-Mediated Cullin Neddylation” (J Med Chem, 2018).
pIC50: −log10 of the molar value.

Experiments:
[1] = Half life in mouse liver microsomes at 0.8 uM by LC-MS/MS analysis; format: ADME, microsome
DCN1-like protein 1 = DCN1-like protein 1 (Homo sapiens, UniProt Q96GG9)
Description: Inhibition of biotin-labeled DCN1 (unknown origin) assessed as reduction in protein interaction with Ac-UBE2M12-AlexaFluor488 after 1 hr by TR-FRET assay

Liver [2] = assay: Drug level in mouse liver microsomes treated with 1-benzyl-1-(1-(cyclopropylmethyl)piperidin-4-yl)-3-(3-(trifluoromethyl)phenyl)urea at 0.8 uM by LC-MS/MS analysis; format: ADME, microsome
[3] = Intrinsic clearance in mouse liver microsomes at 0.8 uM by LC-MS/MS analysis; format: ADME, microsome; conditions: read-out: CLH
Mus musculus [4] = assay: Volume of distribution in mouse at 0.5 to 1.5 mg/kg, iv administered as single dose; format: ADME, organism-based; conditions: in vivo
Mus musculus [5] = assay: Clearance in mouse at 0.5 to 1.5 mg/kg, iv administered as single dose; format: ADME, organism-based; conditions: in vivo
Mus musculus [6] = assay: Toxicity in mouse at 0.5 to 1.5 mg/kg, iv administered as single dose up to 48 hrs; format: organism-based; conditions: in vivo
Mus musculus [7] = assay: Half life in mouse at 0.5 to 1.5 mg/kg, iv administered as single dose; format: ADME, organism-based; conditions: in vivo
Plasma = assay: Plasma concentration in mouse at 0.5 to 1.5 mg/kg, iv administered as single dose after 2 hrs; format: ADME, organism-based; conditions: in vivo, BLD = below limit of detection
Liver [8] = assay: Drug metabolism in mouse liver microsomes assessed as 1-benzyl-1-(piperidin-4-yl)-3-(3-(trifluoromethyl)phenyl)urea formation at 0.8 uM by LC-MS/MS analysis; format: ADME, microsome
Liver [9] = assay: Drug metabolism in mouse liver microsomes assessed as aromatic ring oxidation at 0.8 uM by LC-MS/MS analysis; format: ADME, microsome

Sequence of DCN1-like protein 1 (Q96GG9 whole entry): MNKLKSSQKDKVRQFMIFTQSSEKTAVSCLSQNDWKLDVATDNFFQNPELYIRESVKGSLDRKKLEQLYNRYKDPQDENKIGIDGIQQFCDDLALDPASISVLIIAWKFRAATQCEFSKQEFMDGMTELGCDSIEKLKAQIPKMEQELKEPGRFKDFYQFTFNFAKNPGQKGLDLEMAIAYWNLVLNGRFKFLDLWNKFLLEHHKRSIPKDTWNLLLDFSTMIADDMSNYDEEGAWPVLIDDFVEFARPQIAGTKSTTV

Row | SMILES | half-life at 0.8 µM [1] | pIC50 (DCN1-like protein 1) | also measured
1 | CCCCN1CCC(N(Cc2ccccc2)C(=O)Nc2cccc(C#N)c2)CC1 | 9.3 min | 5.37 | –
2 | CCCC(C)N1CCC(N(Cc2ccccc2)C(=O)Nc2ccc(C(C)C)cc2)CC1 (stereo unspecified) | 10.6 min | – | –
3 | CCCCN1CCC(N(Cc2ccccc2)C(=O)Nc2cccc(C(F)(F)F)c2F)CC1 | ≤ 6 min | – | –
4 | CCCC(C)N1CCC(N(Cc2ccccc2)C(=O)Nc2ccc(C)c(F)c2)CC1 (stereo unspecified) | 9 min | – | –
5 | O=C(Nc1cccc(C(F)(F)F)c1)N(Cc1ccccc1)C1CCNCC1 | – | – | Drug metabolism (Liver [2]): Metabolite_Detected
6 | CCCN1CCC(N(Cc2cc(F)cc(C(F)(F)F)c2)C(=O)Nc2cccc(C(F)(F)F)c2)CC1 | 16.3 min | – | –
7 | CCCC(C)N1CCC(N(Cc2ccccc2)C(=O)Nc2ccc(C(C)(C)C)cc2)CC1 (stereo unspecified) | – | 5.76 | –
8 | CCCN1CCC(N(Cc2ccco2)C(=O)Nc2cccc(C(F)(F)F)c2)CC1 | 8.22 min | – | –
9 | CCCC(C)N1CCC(N(Cc2ccccc2)C(=O)Nc2cccc(F)c2)CC1 (stereo unspecified) | ≤ 6 min | 5.77 | –
10 | CCCCN1CCC(N(Cc2ccccc2)C(=O)Nc2cccc(C(F)(F)F)c2)CC1 | 9 min | – | –
11 | O=C(Nc1cc(F)cc(C(F)(F)F)c1)N(Cc1ccccc1)C1CCN(Cc2ccc(Cc3ccccc3)cc2)CC1 | – | < 4.66 | –
12 | O=C(Nc1cc(F)cc(C(F)(F)F)c1)N(Cc1ccccc1)C1CCN(Cc2cccc(Oc3ccccc3)c2)CC1 | – | < 4.62 | –
13 | CCCC(C)N1CCC(N(Cc2ccccc2)C(=O)Nc2cc(F)cc(Cl)c2)CC1 (stereo unspecified) | ≤ 6 min | – | CLint scaled at 0.8 µM [3]: ≥ 500 mL/min/kg
14 | CCCC(C)N1CCC(N(Cc2ccccc2)C(=O)Nc2ccc(Cl)cc2)CC1 (stereo unspecified) | 22.1 min | 6.95 | –
15 | CCCC(C)N1CCC(N(Cc2ccccc2)C(=O)Nc2ccc(C#N)c(C(F)(F)F)c2)CC1 (stereo unspecified) | 55.9 min | – | –
16 | CCCC(C)N1CCC(N(Cc2ccccc2)C(=O)Nc2cc(F)cc(C(F)(F)F)c2)CC1 (stereo unspecified) | 11.8 min | – | –
17 | CCCC(C)N1CCC(N(Cc2ccccc2)C(=O)Nc2cccc(Cl)c2)CC1 (stereo unspecified) | ≤ 6 min | 6.52 | –
18 | CCCC(C)N1CCC(N(Cc2ccccc2)C(=O)Nc2ccc(Br)cc2)CC1 (stereo unspecified) | 23.2 min | 7.17 | –
19 | CCCC(C)N1CCC(N(Cc2ccccc2)C(=O)Nc2ccc3ncsc3c2)CC1 (stereo unspecified) | 14.3 min | – | –

Row | SMILES | half-life at 0.8 µM [1] | pIC50 (DCN1-like protein 1) | also measured
20 | CCCC(C)N1CCC(N(Cc2ccccc2)C(=O)Nc2ccc3c(c2)CCC3)CC1 (stereo unspecified) | ≤ 6 min | – | –
21 | CCCC(C)N1CCC(N(Cc2ccccc2)C(=O)Nc2ccc(F)c(F)c2)CC1 (stereo unspecified) | 11.3 min | – | –
22 | COc1ccccc1CN1CCC(N(Cc2ccccc2)C(=O)Nc2cc(F)cc(C(F)(F)F)c2)CC1 | – | < 4.60 | –
23 | CCCC(C)N1CCC(N(Cc2ccccc2)C(=O)Nc2ccc(F)c(C(F)(F)F)c2)CC1 (stereo unspecified) | 23.6 min | 6.54 | –
24 | CCCC(C)N1CCC(N(Cc2ccccc2)C(=O)Nc2ccc3ccccc3c2)CC1 (stereo unspecified) | ≤ 6 min | 7.74 | CLint scaled at 0.8 µM [3]: ≥ 500 mL/min/kg
25 | CCCCN1CCC(N(Cc2ccccc2)C(=O)Nc2ccc(C)c(Cl)c2)CC1 | 17.2 min | 6.49 | –
26 | Cn1cncc1CN1CCC(N(Cc2ccccc2)C(=O)Nc2cc(F)cc(C(F)(F)F)c2)CC1 | – | < 4.62 | –
27 | CCCCN1CCC(N(Cc2ccccc2)C(=O)Nc2cccc(C)c2)CC1 | 10.7 min | 5.89 | –
28 | CCCN1CCC(N(Cc2ccc3c(c2)OCO3)C(=O)Nc2cccc(C(F)(F)F)c2)CC1 | < 6 min | – | –
29 | CCCC(C)N1CCC(N(Cc2ccccc2)C(=O)Nc2ccc(I)cc2)CC1 (stereo unspecified) | 29.9 min | 7.27 | –
30 | Cn1ccnc1CN1CCC(N(Cc2ccccc2)C(=O)Nc2cc(F)cc(C(F)(F)F)c2)CC1 | – | < 4.55 | –
31 | CCCCN1CCC(N(Cc2ccccc2)C(=O)Nc2cc(F)cc(F)c2)CC1 | ≤ 6 min | – | CLint scaled at 0.8 µM [3]: ≥ 500 mL/min/kg
32 | CCCCN1CCC(N(Cc2ccccc2)C(=O)Nc2cccc(F)c2)CC1 | ≤ 6 min | – | CLint scaled at 0.8 µM [3]: ≥ 500 mL/min/kg
33 | CCCCN1CCC(N(Cc2ccccc2)C(=O)Nc2cccc(Cl)c2)CC1 | ≤ 6 min | – | –
34 | CCCN1CCC(N(Cc2ccccc2)C(=O)Nc2cccc(C(F)(F)F)c2)CC1 | 10.2 min | – | –
35 | CCCC(C)N1CCC(N(Cc2ccccc2)C(=O)Nc2cccc(C(F)(F)F)c2)CC1 (stereo unspecified) | 19.6 to 19.8 min | – | Vd (Mus musculus [4]): 87.3 to 176 L/kg; CL (Mus musculus [5]): 700 mL/min/kg; CLint scaled at 0.8 µM [3]: 165 to 170 mL/min/kg; Activity (Mus musculus [6]): Non-Toxic; t1/2 (Mus musculus [7]): 8.4 min; Cp (Plasma): Bld
36 | CCCC(C)N1CCC(N(Cc2ccccc2)C(=O)Nc2ccc(C(F)(F)F)cc2)CC1 (stereo unspecified) | 27.3 min | 6.50 | –
37 | O=C(Nc1cc(F)cc(C(F)(F)F)c1)N(Cc1ccccc1)C1CCN(Cc2ccncc2)CC1 | – | < 4.55 | –
38 | CCCCN1CCC(N(Cc2ccc3c(c2)OCO3)C(=O)Nc2cccc(C(F)(F)F)c2)CC1 | 14.7 min | – | –

Row | SMILES | half-life at 0.8 µM [1] | pIC50 (DCN1-like protein 1) | also measured
39 | CCCC(C)N1CCC(N(Cc2ccccc2)C(=O)Nc2ccc3ncccc3c2)CC1 (stereo unspecified) | – | < 4.70 | –
40 | O=C(Nc1cccc(C(F)(F)F)c1)N(Cc1ccccc1)C1CCN(CC2CC2)CC1 | < 6 min | – | Drug metabolism (Liver [8]): Metabolite_Detected; Drug metabolism (Liver [9]): Metabolite_Detected
41 | CCCCN1CCC(N(Cc2ccccc2)C(=O)Nc2ccc(F)c(Cl)c2)CC1 | 84 min | – | –
42 | Cn1ccc2cc(CN3CCC(N(Cc4ccccc4)C(=O)Nc4cc(F)cc(C(F)(F)F)c4)CC3)ccc21 | – | < 4.68 | –
43 | CCCC(C)N1CCC(N(Cc2ccccc2)C(=O)Nc2ccc3c(c2)OCO3)CC1 (stereo unspecified) | ≤ 6 min | – | CLint scaled at 0.8 µM [3]: ≥ 500 mL/min/kg
44 | CCCC(C)N1CCC(N(Cc2ccccc2)C(=O)Nc2cc(C(F)(F)F)ccc2F)CC1 (stereo unspecified) | 48.5 min | 5.13 | –
45 | O=C(Nc1cc(F)cc(C(F)(F)F)c1)N(Cc1ccccc1)C1CCN(Cc2nc3ccccc3s2)CC1 | – | < 4.60 | –
46 | Cc1ccc(CN2CCC(N(Cc3ccccc3)C(=O)Nc3cc(F)cc(C(F)(F)F)c3)CC2)o1 | – | < 4.62 | –
47 | CCCC(C)N1CCC(N(Cc2ccccc2)C(=O)Nc2ccc(C)cc2)CC1 (stereo unspecified) | 9.6 min | 6.45 | –
48 | CC(C)(C)N1CCC(N(Cc2ccc3c(c2)OCO3)C(=O)Nc2cccc(C(F)(F)F)c2)CC1 | 7.44 min | – | –
49 | CCCCN1CCC(N(Cc2ccccc2)C(=O)Nc2ccc(F)c(C(F)(F)F)c2)CC1 | 116 min | 6.21 | –
50 | CCCCN1CCC(N(Cc2ccccc2)C(=O)Nc2cc(F)cc(C(F)(F)F)c2)CC1 | 146 min | – | –
51 | COc1cccc(CN2CCC(N(Cc3ccccc3)C(=O)Nc3cc(F)cc(C(F)(F)F)c3)CC2)c1 | – | < 4.55 | –
52 | CCCC(C)N1CCC(N(Cc2ccccc2)C(=O)Nc2cc(Cl)ccc2F)CC1 (stereo unspecified) | 14.9 min | < 4.47 | –
53 | CCCC(C)N1CCC(N(Cc2ccccc2)C(=O)Nc2ccc(Cl)c([N+](=O)[O-])c2)CC1 (stereo unspecified) | 22.7 min | – | –
54 | O=C(Nc1cccc(C(F)(F)F)c1)NC1CCN(Cc2ccccc2)CC1 | 35.5 min | – | –
55 | CCCC(C)N1CCC(N(Cc2ccccc2)C(=O)Nc2cccc(C(C)C)c2)CC1 (stereo unspecified) | 13.4 min | 6.45 | –
56 | CCCC(C)N1CCC(N(Cc2ccccc2)C(=O)Nc2ccc(C(F)(F)F)nc2C)CC1 (stereo unspecified) | > 240 min | 4.88 | –
